Measured values as given in publication PMC10111022, “Comparison of pharmacological inhibitors of lysine-specific demethylase 1 in glioblastoma stem cells reveals inhibitor-specific efficacy profiles” (Frontiers in Neurology, 2023).

Legend:
[1] = test system: MDA-GSC 6–27; assay: Cell viability dose response (IC50), MDA-GSC 6–27; format: cell-based; settings: Homo sapiens, mean of three independent experiments
Description: (§1) MDA-GSCs were plated at 50,000 cells/well into 12-well plates at and allowed to grow for 5 days until neurospheres were formed. The cells were then treated with either TCP, GSK-LSD1, or RN-1 at various concentrations for 5 days. Next, the cells were collected and neurospheres were dissociated with Accutase (BioLegend; San Diego, CA). Cell viability was determined using a trypan dye exclusion assay and read with the Vi-Cell XR Cell Viability Analyzer (Beckman Coulter; Brea, CA). NHAs were plated at 50,000 cells/well into 12-well plates and allowed to adhere overnight. The following day, NHAs were treated with the LSD1 inhibitors. After 5 days, the cells were detached using TrypLE and assessed with the trypan blue dye exclusion assay.
(§2) The alamarBlue cell viability (Bio-Rad; Hercules, CA) was performed on the MDA-GSCs according to the manufacturer’s protocol. The cells were plated at 5,000 cell/well into a 96-well plate and allowed to grow for 5 days. After 5 days, the alamarBlue reagent was added and fluorescence was measured with the Synergy 2 (BioTek Instruments; Winooski, VT) plate reader according to the manufacturer’s protocol.

[2] = test system: MDA-GSC 23; assay: Cell viability dose response (IC50), MDA-GSC 23; format: cell-based; settings: Homo sapiens, mean of three independent experiments
Description: as §1, §2

[3] = test system: NHA; assay: Cell viability dose response (IC50), normal human astrocytes; format: cell-based
Description: as §1, §2

[4] = test system: MDA-GSC lines; assay: Cell proliferation of MDA-GSCs tracked over 5 days; format: cell-based, Human; settings: 400 μM, after 5 days; all MDA-GSC lines apart from MDA-GSC311
Description: as §2
Figure 3 Effects of GSK-LSD1 on GSCs cell proliferation and neurosphere formation. (A–I) Cell proliferation of MDA-GSCs was tracked over 5 days after treatment with GSK-LSD1 at 400 μM. Day five data was analyzed with a student’s t-test. ns = p > 0.05, *p ≤ 0.05, **p ≤ 0.01, ***p ≤ 0.001, ****p ≤ 0.0001. (J) Bar graphs showing the number of neurospheres formed by MDA-GSCs after treatment with GSK-LSD1. Grouped data was analyzed using a two-way ANOVA with the Šídák multiple comparisons test. ns = p > 0.05, ***p ≤ 0.001, ****p ≤ 0.0001.

[5] = test system: MDA-GSC20 orthotopic xenograft; assay: Intracranial orthotopic xenograft model, bioluminescence tumor burden and survival; format: in vivo, athymic nude mice
Description: All animal experiments were approved by the University of Texas MD Anderson Cancer Center Institutional Animal Care and Use Committee (IACUC) under protocol 638 (P.I. Chandra). An equal number of male and female athymic nude mice aged 4–6 weeks old were bolted with guide screws by MD Anderson’s Brain Tumor Center Animal Core as previously described ([16]). Ketamine/xylazine was administered for anesthesia and buprenorphine or buprenorphine sustained-release (SR) was administered for analgesia during and after the surgery. MDA-GSC20 luciferase labelled cells were resuspended in PBS and 500,000 cells were intracranially implanted into each mouse via guide screw. To monitor tumor engraftment and tumor progression throughout treatment, each mouse was imaged weekly using an IVIS 200 imager (Perkin Elmer; Waltham, MA). Mice were anesthetized via inhalation of isoflurane and injected with 200 μL of D-Luciferin (GoldBio; St Louis, MO) subcutaneously. Bioluminescence signal in the mice was read and reported as photons/s.
Once confirmation of intracranial tumor engraftment at 7 days post-engraftment, the mice were equally randomized into groups to receive either GSK-LSD1 or the vehicle control. The mice received GSK-LSD1 1 mg/kg diluted in DMSO and PBS (5 and 95%, respectively) via intraperitoneal injection (200 μL/mouse) while the control mice received the untreated vehicle in parallel. In accordance with the approved IACUC protocol (No: 638-RN03) at MD Anderson Cancer Center, treatment continued until the mice succumbed to tumor burden and were found in a moribund condition as determined by neurological impairment (hydrocephalus, seizures, inactivity, and/or ataxia) or morbidity (hunched posture or weight loss). At this time mice were euthanized by both carbon dioxide exposure and cervical dislocation. […]

[6] = test system: brain tissue; assay: qPCR of resistance-related genes in brain tissue of treated xenograft mouse; format: in vivo; settings: treated mouse vs control mouse after succumbing to tumor burden
Description: Total RNA was extracted using RNeasy Plus Mini Kit (Qiagen; Hilden, Germany) following the manufacturer’s protocol. cDNA was synthesized with the iScript cDNA synthesis kit (Bio-Rad; Hercules, CA), qPCR was performed using Forget-Me-Not EvaGreen qPCR kit (Biotium; Fremont, CA), and samples were analyzed with the LightCycler96 (Roche; Basel, Switzerland). Cq values were normalized to PPIA and reported as relative fold change from untreated control.
We then measured the gene expression of the candidate gene set in brain tissue of a mouse treated with GSK-LSD1 compared to a control mouse after they succumbed to tumor burden. […] Finally, we assessed the presence of this gene set in patient data acquired from TCGA ([17], [18]). In a dataset of glioblastoma patient samples, LSD1 expression has an inverse relationship with the genes that correlate with resistance (Figures 6H,I). We then assessed the correlation between resistance related gene expression and GBM subtypes using TCGA (Figure 6J). From this analysis, we find that the mesenchymal subtype has an increased expression of HKDC1 and RAB3IL1 compared to classical and proneural. […] Overall, our established gene set may predict resistance to LSD1 inhibition and is concordant across in vitro experiments, in vivo studies, and is expressed in a LSD1 dependent manner in GBM patients.

SMILES: c1ccc([C@@H]2C[C@H]2NC2CCNCC2)cc1 [GSK-LSD1]
- IC50 [1]: 598 µM
- IC50 [2]: > 750 µM
- IC50 ([3]; Homo sapiens, Astrocyte, NHA, mean of three independent experiments): > 750 µM
- effect on NHA viability ([3]; NHA treated at the maximum concentration tested for each compound): minimal effect
- effect on MDA-GSC proliferation [4]: Consistent anti-proliferative effects
- rate of tumor progression ([5]; 1 mg/kg intraperitoneal, week 11, vs control mice): lower rate of tumor progression
- tumor burden (bioluminescence) ([5]; 1 mg/kg intraperitoneal, week seven, vs control): strong regression in tumor burden
- overall survival ([5]; continued dosing beyond week 11): ineffective to improve overall survival
- expression of candidate gene set in brain tissue [6]: three of the four genes, except for FAM213A, were upregulated
